Legend:
[1] = test system: mouse peritoneal macrophages; experiment: Whole genome microarray, macrophages stimulated with LPS/IFNγ; assay type: cell-based
Procedure: (§1) Three milliliters of 4% Thioglycolate solution was injected intraperitoneally into 8-12 week old C57BL/6 mice. Three days later, macrophages were collected by lavaging the peritoneal cavity with PBS. The cells were then resuspended in DMEM containing 10% FBS. After 2 h, non-adherent cells were washed away with PBS and the macrophages were cultured overnight in serum free DMEM. The macrophages were then treated with DMEM containing IL4 (10 ng/ml, BioAbChem Inc. Ladson, S.C.) or LPS (100 ng/ml, Sigma-Aldrich) and IFNγ (20 ng/ml, BioAbChem Inc) with or without emodin. Emodin was purchased from Nanjing Langze Medicine and Technology Co. Ltd (Nanjing, China) and dissolved in DMSO at a concentration of 10 mg/ml as a stock solution.
(§2) Microarray analysis was carried out as described previously, with a few alterations. Macrophages were stimulated with IL4 for 6 h or LPS+IFNγ for 24 h with or without emodin (50 μM). Samples were prepared in biological replicates of 4. Cells were lysed with Qiazol and RNA was extracted using Qiagen's miRNeasy kit. Agilent's 2100 Bioanalyzer was used to determine the quality and quantity of the RNA. […] The RNA was amplified and labeled with Agilent's Low Input Quick Amp Labeling Kit (Agilent) according to the manufacturer's instructions. Labeled RNA was then purified using Qiagen's RNeasy Mini Kit (Qiagen, Valencia, Calif.) and dye incorporation and cRNA yield were assessed. Labeled samples were hybridized to Agilent Whole Mouse Genome Microarrays 8×60K (Agilent) using Agilent's Gene Expression Hybridization Kit (Agilent) according to the manufacturer's instructions. Microarray analysis was performed using an Agilent DNA Microarray Scanner System (Cat. # G2565CA).
(§3) For microarray analysis, data was extracted from images with Feature Extractor Software version 10.7.3.1 (Agilent); background correction using detrending algorithms was performed. Subsequently, background-corrected data was uploaded into GeneSpring GX version 11.5.1 for analysis. In this process, data was log 2 transformed, quantile normalized and baseline transformed using the median of all samples. […] Differentially expressed genes were determined by analysis of the data using the Mann-Whitney unpaired statistics. A cutoff p-value of 0.05 and a fold change cutoff value of 2.0 were used to filter the data. Pathway analysis was performed using Ingenuity Pathway Analysis software.

[2] = test system: mouse peritoneal macrophages; experiment: Whole genome microarray, macrophages stimulated with IL4; assay type: cell-based
Procedure: as §1, §2, §3

4T1 cells = experiment: Proliferation, Ki67 staining; assay type: cell-based, mouse; settings: 24 h
Procedure: (§4) For Ki67 staining, 4T1 and EO771 tumor cells were seeded into 6 well plates and cultured in SF DMEM overnight. They were then treated with various concentrations of emodin (0-50 μM) for 24 h. The cells were resuspended with trypsin plus EDTA and fixed with 1% paraformaldehyde. The cells were then permeabilized with 0.25% Triton X-100 and stained with anti-Ki67 […] (Abcam). The cells were washed and incubated with goat anti-rabbit Alexa 488 (Invitrogen, Eugene, Oreg.). After washing, the samples were analyzed by flow cytometry using a BD FACS flow cytometer and CXP software version 2.2. Data were collected for 10,000 live events per sample.

EO771 cells = experiment: Proliferation, Ki67 staining; assay type: cell-based, mouse; settings: 24 h
Procedure: as §4

Cc1cc(O)c2c(c1)C(=O)c1cc(O)cc(O)c1C2=O [emodin]
fold reduction of LPS/IFNγ induced expression ([1]; CD86, microarray, emodin 50 μM): 7.74 fold
fold change of expression under LPS/IFNγ stimulation ([1]; CXCL2, microarray): −10.31 fold
fold change of expression under LPS/IFNγ stimulation ([1]; CXCL10, microarray): −2.01 fold
fold reduction of LPS/IFNγ induced expression ([1]; H2-Oa, microarray, emodin 50 μM): 3.85 fold
fold reduction of LPS/IFNγ induced expression ([1]; H2-Ob, microarray, emodin 50 μM): 6.42 fold
fold reduction of LPS/IFNγ induced expression ([1]; IL1β, microarray, emodin 50 μM): 13.64 fold
fold reduction of LPS/IFNγ induced expression ([1]; IL6, microarray, emodin 50 μM): 3.25 fold
genes changed by emodin in both groups ([1]; LPS/IFNγ and IL4 stimulation, microarray): 1,575 genes
genes whose expression was changed by emodin in at least one of the conditions ([1]; LPS/IFNγ or IL4 stimulation, microarray): ~6,500 genes
genes on which emodin had inverse effects under the two different stimuli ([1]; LPS/IFNγ vs IL4, microarray): 86 genes
fold reduction of LPS/IFNγ induced expression ([1]; MMP2, microarray, emodin 50 μM): 11.86 fold
fold reduction of LPS/IFNγ induced expression ([1]; MMP9, microarray, emodin 50 μM): 28.87 fold
fold increase of expression under LPS/IFNγ stimulation ([1]; Mrc1, microarray): 8.72 fold
fold change of expression under LPS/IFNγ stimulation ([1]; TNFα, microarray): −2.47 fold
fold reduction of LPS/IFNγ induced expression ([1]; TNFα, microarray, emodin 50 μM): 2.01 fold
fold increase of expression under LPS/IFNγ stimulation ([1]; YM1, microarray): 2.04 fold
LPS/IFNγ responsive genes whose induced changes were attenuated ([1]; emodin 50 μM, LPS/IFNγ 24 h): about 31%
Em + LPS vs. LPS/IFN (gene expression) ([1]; gene CCL2, microarray, LPS/IFNγ 24 h, emodin 50 μM): −12.06
Em + LPS vs. LPS/IFN (gene expression) ([1]; gene CCL5, microarray, LPS/IFNγ 24 h, emodin 50 μM): −5.41
Em + LPS vs. LPS/IFN (gene expression) ([1]; gene CD86, microarray, LPS/IFNγ 24 h, emodin 50 μM): −7.74
Em + LPS vs. LPS/IFN (gene expression) ([1]; gene CXCL2, microarray, LPS/IFNγ 24 h, emodin 50 μM): −2.47
Em + LPS vs. LPS/IFN (gene expression) ([1]; gene CXCL3, microarray, LPS/IFNγ 24 h, emodin 50 μM): −2.47
Em + LPS vs. LPS/IFN (gene expression) ([1]; gene CXCL10, microarray, LPS/IFNγ 24 h, emodin 50 μM): −10.31
Em + LPS vs. LPS/IFN (gene expression) ([1]; gene FPR2, microarray, LPS/IFNγ 24 h, emodin 50 μM): −33.81
Em + LPS vs. LPS/IFN (gene expression) ([1]; gene H2-Oa, microarray, LPS/IFNγ 24 h, emodin 50 μM): −3.85
Em + LPS vs. LPS/IFN (gene expression) ([1]; gene H2-Ob, microarray, LPS/IFNγ 24 h, emodin 50 μM): −6.42
Em + LPS vs. LPS/IFN (gene expression) ([1]; gene IFIT1, microarray, LPS/IFNγ 24 h, emodin 50 μM): −11.94
Em + LPS vs. LPS/IFN (gene expression) ([1]; gene IL1B, microarray, LPS/IFNγ 24 h, emodin 50 μM): −13.64
Em + LPS vs. LPS/IFN (gene expression) ([1]; gene IL1RL1, microarray, LPS/IFNγ 24 h, emodin 50 μM): −10.78
Em + LPS vs. LPS/IFN (gene expression) ([1]; gene IL6, microarray, LPS/IFNγ 24 h, emodin 50 μM): −3.25
Em + LPS vs. LPS/IFN (gene expression) ([1]; gene IL12A, microarray, LPS/IFNγ 24 h, emodin 50 μM): −4.93
Em + LPS vs. LPS/IFN (gene expression) ([1]; gene IL12B, microarray, LPS/IFNγ 24 h, emodin 50 μM): 2.47
Em + LPS vs. LPS/IFN (gene expression) ([1]; gene IRF5, microarray, LPS/IFNγ 24 h, emodin 50 μM): −2.11
Em + LPS vs. LPS/IFN (gene expression) ([1]; gene IRF7, microarray, LPS/IFNγ 24 h, emodin 50 μM): −4.20
Em + LPS vs. LPS/IFN (gene expression) ([1]; gene MMP2, microarray, LPS/IFNγ 24 h, emodin 50 μM): −11.86
Em + LPS vs. LPS/IFN (gene expression) ([1]; gene MMP9, microarray, LPS/IFNγ 24 h, emodin 50 μM): −28.87
Em + LPS vs. LPS/IFN (gene expression) ([1]; gene MYH3, microarray, LPS/IFNγ 24 h, emodin 50 μM): −7.76
Em + LPS vs. LPS/IFN (gene expression) ([1]; gene Mrc1, microarray, LPS/IFNγ 24 h, emodin 50 μM): 8.72
Em + LPS vs. LPS/IFN (gene expression) ([1]; gene NOS2, microarray, LPS/IFNγ 24 h, emodin 50 μM): −3.77
Em + LPS vs. LPS/IFN (gene expression) ([1]; gene PTGS2, microarray, LPS/IFNγ 24 h, emodin 50 μM): −3.99
Em + LPS vs. LPS/IFN (gene expression) ([1]; gene RASGRP1, microarray, LPS/IFNγ 24 h, emodin 50 μM): −8.52
Em + LPS vs. LPS/IFN (gene expression) ([1]; gene SELL, microarray, LPS/IFNγ 24 h, emodin 50 μM): −10.45
Em + LPS vs. LPS/IFN (gene expression) ([1]; gene SOCS1, microarray, LPS/IFNγ 24 h, emodin 50 μM): −5.34
Em + LPS vs. LPS/IFN (gene expression) ([1]; gene TLR4, microarray, LPS/IFNγ 24 h, emodin 50 μM): −4.71
Em + LPS vs. LPS/IFN (gene expression) ([1]; gene TNF, microarray, LPS/IFNγ 24 h, emodin 50 μM): −2.01
fold reduction of IL4 induced expression ([2]; Arg1, microarray, emodin 50 μM): 7.69 fold
fold increase of expression under IL4 stimulation ([2]; CXCL2, microarray): 60.6 fold
fold increase of expression under IL4 stimulation ([2]; CXCL10, microarray): 15.5 fold
fold reduction of IL4 induced expression ([2]; Ch3I3, microarray, emodin 50 μM): 4.24 fold
fold reduction of IL4 induced expression ([2]; IRF4, microarray, emodin 50 μM): 97.43 fold
fold reduction of IL4 induced expression ([2]; Mrc1, microarray, emodin 50 μM): 2.29 fold
fold reduction of IL4 induced expression ([2]; SOCS1, microarray, emodin 50 μM): 22.9 fold
fold increase of expression under IL4 stimulation ([2]; TNFα, microarray): 2.7 fold
IL4 responsive genes whose induced changes were inhibited ([2]; emodin 50 μM, IL4 6 h): ~60%
Em + LPS vs. LPS/IFN (gene expression) ([2]; gene Arg1, microarray, emodin 50 μM): −7.69
Em + LPS vs. LPS/IFN (gene expression) ([2]; gene CCL7, microarray, emodin 50 μM): −4.16
Em + LPS vs. LPS/IFN (gene expression) ([2]; gene CCL11, microarray, emodin 50 μM): −11.31
Em + LPS vs. LPS/IFN (gene expression) ([2]; gene CCL12, microarray, emodin 50 μM): 2.30
Em + LPS vs. LPS/IFN (gene expression) ([2]; gene CCL28, microarray, emodin 50 μM): 2.27
Em + LPS vs. LPS/IFN (gene expression) ([2]; gene CDH1, microarray, emodin 50 μM): −5.72
Em + LPS vs. LPS/IFN (gene expression) ([2]; gene CDKN1A, microarray, emodin 50 μM): 29.78
Em + LPS vs. LPS/IFN (gene expression) ([2]; gene CISH, microarray, emodin 50 μM): −7.11
Em + LPS vs. LPS/IFN (gene expression) ([2]; gene CXCL2, microarray, emodin 50 μM): 60.63
Em + LPS vs. LPS/IFN (gene expression) ([2]; gene CXCL10, microarray, emodin 50 μM): 15.05
Em + LPS vs. LPS/IFN (gene expression) ([2]; gene CXCR1, microarray, emodin 50 μM): 12.40
Em + LPS vs. LPS/IFN (gene expression) ([2]; gene Ccl2, microarray, emodin 50 μM): −4.26
Em + LPS vs. LPS/IFN (gene expression) ([2]; gene Chi3I3, microarray, emodin 50 μM): −4.24
Em + LPS vs. LPS/IFN (gene expression) ([2]; gene FCGR2B, microarray, emodin 50 μM): −2.15
Em + LPS vs. LPS/IFN (gene expression) ([2]; gene FLT1, microarray, emodin 50 μM): −27.09
Em + LPS vs. LPS/IFN (gene expression) ([2]; gene IL1R1, microarray, emodin 50 μM): −2.15
Em + LPS vs. LPS/IFN (gene expression) ([2]; gene IL6, microarray, emodin 50 μM): −5.30
Em + LPS vs. LPS/IFN (gene expression) ([2]; gene IL19, microarray, emodin 50 μM): −20.01
Em + LPS vs. LPS/IFN (gene expression) ([2]; gene IRF4, microarray, emodin 50 μM): −97.43
Em + LPS vs. LPS/IFN (gene expression) ([2]; gene IRF5, microarray, emodin 50 μM): −2.58
Em + LPS vs. LPS/IFN (gene expression) ([2]; gene ITGB8, microarray, emodin 50 μM): −4.32
Em + LPS vs. LPS/IFN (gene expression) ([2]; gene MMP13, microarray, emodin 50 μM): 3.68
Em + LPS vs. LPS/IFN (gene expression) ([2]; gene Mrc1, microarray, emodin 50 μM): −2.29
Em + LPS vs. LPS/IFN (gene expression) ([2]; gene PLA2G5, microarray, emodin 50 μM): 4.26
Em + LPS vs. LPS/IFN (gene expression) ([2]; gene PTGS2, microarray, emodin 50 μM): 2.56
Em + LPS vs. LPS/IFN (gene expression) ([2]; gene RBP4, microarray, emodin 50 μM): −15.56
Em + LPS vs. LPS/IFN (gene expression) ([2]; gene SOCS1, microarray, emodin 50 μM): −22.90
Em + LPS vs. LPS/IFN (gene expression) ([2]; gene SOCS2, microarray, emodin 50 μM): −5.47
Em + LPS vs. LPS/IFN (gene expression) ([2]; gene TNF, microarray, emodin 50 μM): 2.69
expression of CDKN1A (p21) ([2]; microarray): increased the expression
expression of M2 genes YM1 and Mrc1 in IL4-stimulated cells ([2]; microarray): reducing them
concentrations with no significant effect on cell proliferation (4T1 cells): less than 50 μM
concentrations with no significant effect on cell proliferation (EO771 cells): less than 50 μM

Reference: patent US9795570B2, “Modulation of macrophage phenotype by emodin” (University of South Carolina, priority 2016, dated 2017)
